Results on 45 molecules are retold here after patent US7996156B2, “Methods for predicting properties of molecules” (priority 2002, dated 2011).

Like-named read-outs stand apart in the source and are kept apart here.

Data set [1] addresses T1, aryl hydrocarbon receptor (AhR) (Rattus norvegicus, UniProt P41738).
T1 construct: rodent hepatic cytosol as a source of the AhR; from tissue; host or cells: rodent hepatic cytosol
T1 sequence (P41738 10-853): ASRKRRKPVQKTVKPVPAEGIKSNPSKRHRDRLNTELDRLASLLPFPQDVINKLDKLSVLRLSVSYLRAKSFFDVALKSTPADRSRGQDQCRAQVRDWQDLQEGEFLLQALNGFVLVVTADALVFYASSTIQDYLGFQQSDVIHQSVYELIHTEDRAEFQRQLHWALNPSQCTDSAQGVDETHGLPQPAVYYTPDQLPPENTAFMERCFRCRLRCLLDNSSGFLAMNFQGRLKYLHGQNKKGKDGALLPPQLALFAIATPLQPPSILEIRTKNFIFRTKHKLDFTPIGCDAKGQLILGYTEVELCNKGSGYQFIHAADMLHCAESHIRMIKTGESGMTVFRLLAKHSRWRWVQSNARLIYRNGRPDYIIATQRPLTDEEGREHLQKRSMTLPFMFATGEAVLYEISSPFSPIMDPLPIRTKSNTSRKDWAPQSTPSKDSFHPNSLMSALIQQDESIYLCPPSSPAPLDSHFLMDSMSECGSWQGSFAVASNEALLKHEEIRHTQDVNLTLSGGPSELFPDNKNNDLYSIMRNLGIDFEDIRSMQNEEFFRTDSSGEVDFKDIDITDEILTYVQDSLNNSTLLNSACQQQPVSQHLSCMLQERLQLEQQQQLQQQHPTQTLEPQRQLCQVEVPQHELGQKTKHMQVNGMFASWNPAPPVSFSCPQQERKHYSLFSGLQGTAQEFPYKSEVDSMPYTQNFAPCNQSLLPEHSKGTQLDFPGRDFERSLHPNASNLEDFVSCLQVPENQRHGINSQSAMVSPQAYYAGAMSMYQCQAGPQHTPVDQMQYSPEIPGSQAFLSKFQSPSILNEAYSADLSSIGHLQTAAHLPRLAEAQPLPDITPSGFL
The conditions noted are these: rodent hepatic cytosol, cited from earlier work.

A further data set concerns the target T2, estrogen receptor (Rattus norvegicus, UniProt P06211).
T2 construct: in rat uterine cytosol, which was obtained from ovariectomized uteri of Sprague-Dawley rats; from tissue; host or cells: uterine cytosol of ovariectomized Sprague-Dawley rats
T2 sequence (P06211 1-600): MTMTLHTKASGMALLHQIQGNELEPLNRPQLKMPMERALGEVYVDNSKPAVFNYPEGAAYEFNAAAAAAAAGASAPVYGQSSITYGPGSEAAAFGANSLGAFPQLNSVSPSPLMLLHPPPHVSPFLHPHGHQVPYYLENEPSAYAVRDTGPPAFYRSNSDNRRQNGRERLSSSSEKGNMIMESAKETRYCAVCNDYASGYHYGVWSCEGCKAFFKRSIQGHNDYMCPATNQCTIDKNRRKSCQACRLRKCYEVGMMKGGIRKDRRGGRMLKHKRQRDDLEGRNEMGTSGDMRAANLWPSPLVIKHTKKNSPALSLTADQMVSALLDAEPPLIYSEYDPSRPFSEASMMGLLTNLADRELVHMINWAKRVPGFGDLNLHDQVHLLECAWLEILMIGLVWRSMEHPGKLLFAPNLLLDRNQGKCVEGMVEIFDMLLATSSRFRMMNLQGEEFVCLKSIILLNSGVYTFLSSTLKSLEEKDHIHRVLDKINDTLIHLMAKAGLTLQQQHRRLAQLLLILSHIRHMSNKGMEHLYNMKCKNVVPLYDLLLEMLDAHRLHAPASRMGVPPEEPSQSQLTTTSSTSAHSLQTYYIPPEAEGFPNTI
The experiment in a line: Competitive ER binding assay with [3H]E2 in rat uterine cytosol (NCTR). An excerpt:
The log relative binding activity (RBA) data for these 130 structurally diverse compounds was used to train the CoSCoSA models. The data was produced at NCTR using a competitive ER binding assay with radiolabeled estradiol ([^3H]E2) in rat uterine cytosol, which was obtained from ovariectomized uteri of Sprague-Dawley rats. […] For each of the 130 compounds, the ^13C 2D ^13C—^13C COSY NMR experiment was simulated using the ACD Labs CNMR version 5.0 2D predictor software. The COSY NMR spectra could be saved as two tables per compound.

Where [2] appears, read: log scale, competitive binding, [3H]-2,3,7,8-tetrachlorodioxin, previously reported training data.
Setting [3] is: previously reported competitive in vitro AhR binding, [3H]-2,3,7,8-tetrachlorodioxin radioligand, values are log EC50.
Where [4] appears, read: relative binding affinity vs 17-β-estradiol (RBA 100), rat uterine cytosol, 130 compound training set.

In the case of `Clc1cc2c(cc1Cl)Oc1c(Cl)c(Cl)c(Cl)c(Cl)c1O2` [1,2,3,4,7,8-hexaCl-dibenzodioxin], the “Experimental Log EC50” value in data set [1] (setting [2]) and in data set [1] (setting [3]) was −7.55 throughout.
With `Clc1cc2oc3c(Cl)c(Cl)c(Cl)c(Cl)c3c2cc1Cl` [1,2,3,4,7,8-hexaCl-dibenzofuran], the “Experimental Log EC50” value in data set [1] (setting [2]) and in data set [1] (setting [3]) was −7.64 each time.
`Clc1ccc2c(c1)Oc1c(Cl)c(Cl)c(Cl)c(Cl)c1O2` [1,2,3,4,7-pentaCl-dibenzodioxin]: the “Experimental Log EC50” value in data set [1] (setting [2]) and in data set [1] (setting [3]) was −6.19 each time.
With `Clc1c(Cl)c(Cl)c2c(c1Cl)Oc1ccccc1O2` [1,2,3,4-tetraCldibenzodioxin], the “Experimental Log EC50” value in data set [1] (setting [2]) and in data set [1] (setting [3]) was −6.88 in each case.
Take `Clc1cc2c(oc3cc(Cl)c(Cl)c(Cl)c32)c(Cl)c1Cl` [1,2,3,6,7,8-hexaCl-dibenzofuran]: the “Experimental Log EC50” value in data set [1] (setting [2]) and in data set [1] (setting [3]) was −7.57 each time.
As for `Clc1cc2oc3c(Cl)cccc3c2c(Cl)c1Cl` [1,2,3,6-tetraCl-dibenzofuran], the “Experimental Log EC50” value in data set [1] (setting [2]) and in data set [1] (setting [3]) was −7.46 in each case.
On to `Clc1cc2c(cc1Cl)Oc1c(cc(Cl)c(Cl)c1Cl)O2` [1,2,3,7,8-pentaCl-dibenzodioxin], for which the “Experimental Log EC50” value in data set [1] (setting [2]) and in data set [1] (setting [3]) was −8.10 throughout.
Regarding `Clc1cc2oc3cc(Cl)c(Cl)c(Cl)c3c2cc1Cl` [1,2,3,7,8-pentaCl-dibenzofuran], the “Experimental Log EC50” value in data set [1] (setting [2]) and in data set [1] (setting [3]) was −8.12 in each case.
As to `Clc1cc(Cl)c2c(c1)oc1cc(Cl)c(Cl)c(Cl)c12` [1,2,3,7,9-pentaCl-dibenzofuran], the “Experimental Log EC50” value in data set [1] (setting [2]) and in data set [1] (setting [3]) was −7.40 throughout.
With `Clc1ccc2c(c1)oc1cc(Cl)c(Cl)c(Cl)c12` [1,2,3,7-tetraCl-dibenzofuran], the “Experimental Log EC50” value in data set [1] (setting [2]) and in data set [1] (setting [3]) was −7.96 in each case.
For `Clc1cc2c(oc3c(Cl)cc(Cl)c(Cl)c32)c(Cl)c1Cl` [1,2,4,6,7,8-hexaCl-dibenzofuran], the “Experimental Log EC50” value in data set [1] (setting [2]) and in data set [1] (setting [3]) was −6.08 in each case.
Regarding `Clc1cc2c(cc1Cl)Oc1c(Cl)c(Cl)cc(Cl)c1O2` [1,2,4,7,8-pentaCl-dibenzodioxin], the “Experimental Log EC50” value in data set [1] (setting [2]) and in data set [1] (setting [3]) was −6.96 in each case.
In the case of `Clc1cc(Cl)c2c(c1)oc1c(Cl)cc(Cl)c(Cl)c12` [1,2,4,7,9-pentaCl-dibenzofuran], the “Experimental Log EC50” value in data set [1] (setting [2]) and in data set [1] (setting [3]) was −5.70 throughout.
Regarding `Clc1ccc2oc3c(Cl)cc(Cl)c(Cl)c3c2c1` [1,2,4,8-tetraCl-dibenzofuran], the “Experimental Log EC50” value in data set [1] (setting [2]) and in data set [1] (setting [3]) was −6.00 throughout.
Take `Clc1cc(Cl)c2c(c1Cl)Oc1ccccc1O2` [1,2,4-triCl-dibenzodioxin]: the “Experimental Log EC50” value in data set [1] (setting [2]) and in data set [1] (setting [3]) was −5.88 each time.
Take `Clc1cc2oc3c(Cl)c(Cl)cc(Cl)c3c2cc1Cl` [1,3,4,7,8-pentaCl-dibenzofuran]: the “Experimental Log EC50” value in data set [1] (setting [2]) and in data set [1] (setting [3]) was −7.70 each time.
As to `Clc1cc(Cl)c2c(c1)Oc1cc(Cl)c(Cl)cc1O2` [1,3,7,8-tetraCl-dibenzodioxin], the “Experimental Log EC50” value in data set [1] (setting [2]) and in data set [1] (setting [3]) was −7.10 each time.
Turning to `Clc1cccc2c1Oc1ccccc1O2` [1-Cl-dibenzodioxin], the “Experimental Log EC50” value in data set [1] (setting [2]) and in data set [1] (setting [3]) was −5.00 throughout.
As to `Clc1ccc(-c2cc(Cl)c(Cl)c(Cl)c2Cl)cc1Cl` [2,3,3′,4,4′,5-hexaCl-biphenyl], the “Experimental Log EC50” value in data set [1] (setting [2]) and in data set [1] (setting [3]) was −6.30 throughout.
Consider `O=c1c(O)c(-c2ccc(O)c(O)c2)oc2cc(O)ccc12` [fisetin], for which the “Exp. Log(RBA)” value on estrogen receptor (setting [4]) is on record as −2.35.
The same measure, in the same setting: the figure for `CCCCCCCOC(=O)c1ccc(O)cc1` [heptyl-4-hydroxybenzoate] is −2.09.
In the case of `CC[C@H](c1ccc(O)cc1)[C@@H](CC)c1ccc(O)cc1` [meso-hexestrol], the “Exp. Log(RBA)” value on estrogen receptor is listed as 2.48.
On the same count and under the same terms, next, `C#C[C@]1(O)CC[C@H]2[C@@H]3CCc4cc(OC)ccc4[C@H]3CC[C@@]21C` [mestranol]: 0.35.
With `COC(=O)c1ccc(O)cc1` [methyl-4-hydrobenzoate], at estrogen receptor (setting [4]), the “Exp. Log(RBA)” value is reported as −3.44.
Regarding `COc1ccc(C(c2ccc(O)cc2)C(Cl)(Cl)Cl)cc1` (stereo not shown) [monohydroxymethoxychlor], the “Exp. Log(RBA)” value at estrogen receptor (setting [4]) is on record as −0.89.
For `COc1ccc(C(=C(Cl)Cl)c2ccc(O)cc2)cc1` [monohydroxymethoxychlorolefin], at estrogen receptor (setting [4]), the “Exp. Log(RBA)” value is −0.63.
Still for that read-out and setting: the figure for `CCC(c1ccc(O)cc1)C(CC)c1ccc(OC)cc1` (stereo not shown) [monomethyl ether hexestrol] is 0.97; for `O=c1c(O)c(-c2ccc(O)cc2O)oc2cc(O)cc(O)c12` [morin] it is −3.35.
In the case of `C#C[C@]1(O)CC[C@H]2[C@@H]3CCc4cc(O)ccc4[C@H]3[C@@H](OC)C[C@@]21C` [moxestrol], the “Exp. Log(RBA)” value on estrogen receptor was found to be 1.14.
On the same count and under the same terms, the figure for `O=c1c(O)c(-c2cc(O)c(O)c(O)c2)oc2cc(O)cc(O)c12` [myricetin] is −2.75.
Turning to `O=C1C[C@@H](c2ccc(O)cc2)Oc2cc(O)cc(O)c21` [naringenin], the “Exp. Log(RBA)” value on estrogen receptor was −2.13.
Consider `CC(Cc1ccc(O)c(O)c1)C(C)Cc1ccc(O)c(O)c1` (stereo not shown) [nordihydroguariareticacid], for which the “Exp. Log(RBA)” value on estrogen receptor (setting [4]) is given as −1.51.
Consider `Clc1ccc(C(c2ccccc2Cl)C(Cl)(Cl)Cl)cc1` (stereo not shown) [o,p′,-DDT], for which the “Exp. Log(RBA)” value at estrogen receptor (setting [4]) is reported as −2.85.
Take `Oc1ccc(-c2ccccc2)cc1` [p-phenylphenol]: the “Exp. Log(RBA)” value on estrogen receptor is recorded as −3.04.
For `O=C(O)c1ccccc1C(c1ccc(O)cc1)c1ccc(O)cc1` [phenolphthalin], the “Exp. Log(RBA)” value on estrogen receptor (setting [4]) is listed as −3.67.
As to `O=C(CCc1ccc(O)cc1)c1c(O)cc(O)cc1O` [phloretin], the “Exp. Log(RBA)” value at estrogen receptor is reported as −1.16.
Same read-out and setting: the figure for `CCCOC(=O)c1ccc(O)cc1` [propyl-4-hydroxybenzoate] is −3.22; for `COc1cc(O)c2c(=O)c(-c3ccc(O)cc3)coc2c1` [prunetin] it is −2.74.
On to `C(=C(c1ccccc1)c1ccccc1)c1ccccc1` [triphenylethylene], for which, on estrogen receptor (setting [4]), the “Exp. Log(RBA)” value is listed as −2.78.
As for `C[C@H]1CCCC(=O)CCCCCc2cc(O)cc(O)c2C(=O)O1` [zearalanone], the “Exp. Log(RBA)” value at estrogen receptor is reported as 0.32.
For the molecule `CCC(c1ccc2cc(O)ccc2c1)C(C)(C)C(=O)O` (stereo not drawn) [α,α-dimethylbethyl allenolic acid], the “Exp. Log(RBA)” value on estrogen receptor (setting [4]) is recorded as −0.02.
Same read-out and setting: the figure for `C[C@H]1CCC[C@H](O)CCCCCc2cc(O)cc(O)c2C(=O)O1` [α-zearalanol] is 1.48.
As to `C[C@H]1CCC[C@H](O)CCC/C=C/c2cc(O)cc(O)c2C(=O)O1` [α-zearalenol], the “Exp. Log(RBA)” value at estrogen receptor (setting [4]) was found to be 1.63.
Still for that read-out and setting: next, `C[C@H]1CCC[C@@H](O)CCCCCc2cc(O)cc(O)c2C(=O)O1` [β-zearalanol]: −0.19; `C[C@H]1CCC[C@@H](O)CCC/C=C/c2cc(O)cc(O)c2C(=O)O1` [β-zearalenol]: −0.69.
